Active and inactive are the calls of the source. The rule behind the calls is not given here.

For assay [1], the system named is HepaRG. The assay can be described thus: Cytotoxicity against human HepaRG cells assessed as mortality rate at 25 uM incubated for 30 mins by LDH assay relative to control. The following applies: 0.5 h. It is filed as functional.
Assay [2] has as its system Mus musculus. Description: Antihyperlipidemic activity in Triton WR-1339 induced hyperlipidemic male Swiss albino mouse model assessed as change in carotid artery endothelial cells at 13 mg/kg, po pre-treated with compound for 6 days followed by triton WR-1339 induction and measured after 24 hrs by H&E staining based analysis. Format: functional, organism-based. The conditions noted are these: time 7.0 day.

The test system of assay [3] is Mus musculus. The assay can be described thus: Antihyperlipidemic activity against Triton WR-1339 induced hyperlipidemic male Swiss albino mouse model assessed as TG level in mouse blood at 13 mg/kg, po pre-treated with compound for 6 days followed by triton WR-1339 induction and measured after 24 hrs (reference value: 485.3 +/- 4.8 mg/dL). It is filed as functional. The following applies: time 7 day.

Assay [4] concerns Mus musculus. Description: Antihyperglycemic activity against Triton WR-1339 induced hyperlipidemic male Swiss albino mouse model assessed as blood glucose level at 13 mg/kg, po pre-treated with compound for 6 days followed by triton WR-1339 induction and measured after 24 hrs by glucose meter analysis (reference value: 121.6 +/- 7.8). It is filed as functional. The following applies: time 7 day.

Assay [5] has as its system Mus musculus. Description: Antihyperlipidemic activity against Triton WR-1339 induced hyperlipidemic male Swiss albino mouse model assessed as LDL level in mouse blood at 13 mg/kg, po pre-treated with compound for 6 days followed by triton WR-1339 induction and measured after 24 hrs (reference value: 231.9 +/- 0.7 mg/dL). It is filed as functional. The following applies: time 7 day.

Assay [6] concerns Mus musculus. The assay can be described thus: Antihyperlipidemic activity against Triton WR-1339 induced hyperlipidemic male Swiss albino mouse model assessed as total cholesterol level in mouse blood at 13 mg/kg, po pre-treated with compound for 6 days followed by triton WR-1339 induction and measured after 24 hrs (reference value: 426.3 +/- 2 mg/dL). Format: functional. The conditions noted are these: time 7 day.

The subject of assay [7] is Mus musculus. The assay can be described thus: Antihyperlipidemic activity in Triton WR-1339 induced hyperlipidemic male Swiss albino mouse model assessed as histopathological change in kidney at 13 mg/kg, po pre-treated with compound for 6 days followed by triton WR-1339 induction and measured after 24 hrs by H&E staining based analysis. Format: functional, organism-based. The following applies: time 7.0 day.

The subject of assay [8] is HepaRG. Description: Cytotoxicity against human HepaRG cells assessed as mortality rate at 250 uM incubated for 30 mins by LDH assay relative to control. The following applies: 0.5 h. Format: functional.
In assay [9] the test system is Mus musculus. The assay can be described thus: Antihyperlipidemic activity in Triton WR-1339 induced hyperlipidemic male Swiss albino mouse model assessed as amelioration of islet cell disruption at 13 mg/kg, po pre-treated with compound for 6 days followed by triton WR-1339 induction and measured after 24 hrs by H&E staining based microscopic analysis. Format: functional, organism-based. The conditions noted are these: time 7.0 day.

Assay [10] concerns Mus musculus. Description: Antihyperlipidemic activity against Triton WR-1339 induced hyperlipidemic male Swiss albino mouse model assessed as HDL level in mouse blood at 13 mg/kg, po pre-treated with compound for 6 days followed by triton WR-1339 induction and measured after 24 hrs (reference value: 97.4 +/- 1.2 mg/dL). Format: functional. The following applies: time 7 day.
Assay [11] relates to Mus musculus. Description: Antihyperlipidemic activity against Triton WR-1339 induced hyperlipidemic male Swiss albino mouse model assessed as VLDL level in mouse blood at 13 mg/kg, po pre-treated with compound for 6 days followed by triton WR-1339 induction and measured after 24 hrs (reference value: 97.1 +/- 1 mg/dL). Format: functional. The following applies: time 7 day.

As to `CC(C)OC(=O)C(C)(C)Oc1ccc(C(=O)c2ccc(Cl)cc2)cc1` [FENOFIBRATE], the Activity came out at 12% in assay [1]; 103 mg/dL in [3]; 75 mg/dL in [4]; 54.4 mg/dL in [5]; 135.7 mg/dL in [6]; 18% in assay [8]. Moreover, the Activity in assay [10] came to 58.7 mg/dL; in [11] it was 20.6 mg/dL. For the same compound, the outcome in assay [2], in assay [7] and in assay [9] was Active.

(Values after ChEMBL document CHEMBL6134831 (Eur J Med Chem, 2025).)
